Data taken from ChEMBL document CHEMBL1201862, “PubChem BioAssay data set” (2004).
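96-well plates; 48 h exposure; 5 concentrations. Endpoints by linear interpolation between flanking doses. Not reached: highest tested concentration assigned. Abbreviation: GI50, concentration required for 50% inhibition of growth.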 Activity calls are given as the source filed them. No stated cut-off is given here; in the data, active = GI50 up to about 1.1 µM and inactive = higher.

What was measured:
Assay in all cases: NCI tumour cell line growth inhibition, 48 h
786-0 = test system: 786-0
A498 = test system: A498
A549 = test system: A549
ACHN = test system: ACHN
BT-549 = test system: BT-549
CAKI-1 = test system: CAKI-1
CCRF-CEM = test system: CCRF-CEM
COLO 205 = test system: COLO 205
DU-145 = test system: DU-145
EKVX = test system: EKVX
HCC 2998 = test system: HCC 2998
HCT-116 = test system: HCT-116
HCT-15 = test system: HCT-15
HL-60 = test system: HL-60
HOP-62 = test system: HOP-62
HOP-92 = test system: HOP-92
HT-29 = test system: HT-29
Hs-578T = test system: Hs-578T
IGROV-1 = test system: IGROV-1
K562 = test system: K562
KM12 = test system: KM12
LOX IMVI = test system: LOX IMVI
M14 = test system: M14
MCF7 = test system: MCF7
MDA-MB-231 = test system: MDA-MB-231
MDA-MB-435 = test system: MDA-MB-435
MDA-N = test system: MDA-N
MOLT-4 = test system: MOLT-4
Malme-3M = test system: Malme-3M
NCI-H226 = test system: NCI-H226
NCI-H23 = test system: NCI-H23
NCI-H460 = test system: NCI-H460
NCI-H522 = test system: NCI-H522
NCI/ADR-RES = test system: NCI/ADR-RES
OVCAR-3 = test system: OVCAR-3
OVCAR-4 = test system: OVCAR-4
OVCAR-5 = test system: OVCAR-5
OVCAR-8 = test system: OVCAR-8
PC-3 = test system: PC-3
RPMI-8226 = test system: RPMI-8226
RXF 393 = test system: RXF 393
SF-268 = test system: SF-268
SF-295 = test system: SF-295
SF-539 = test system: SF-539
SK-MEL-28 = test system: SK-MEL-28
SK-MEL-2 = test system: SK-MEL-2
SK-MEL-5 = test system: SK-MEL-5
SK-OV-3 = test system: SK-OV-3
SN12C = test system: SN12C
SNB-19 = test system: SNB-19
SNB-75 = test system: SNB-75
SR = test system: SR
SW-620 = test system: SW-620
TK-10 = test system: TK-10
U-251 = test system: U-251
UACC-257 = test system: UACC-257
UACC-62 = test system: UACC-62
UO-31 = test system: UO-31

Question: CCOP(=O)(OCC)/C(C#N)=C/c1cnc(C)[nH]1 was tested. Which GI50 (786-0) did it give?
Answer: > 100 µM (inactive)

Question: What about the GI50 (A498) of the same compound?
Answer: > 100 µM (inactive)

Question: What about the GI50 (A549) of the same compound?
Answer: > 100 µM (inactive)

Question: And the GI50 (ACHN)?
Answer: > 100 µM (inactive)

Question: What about the GI50 (BT-549) of the same compound?
Answer: > 100 µM (inactive)

Question: And the GI50 (CAKI-1)?
Answer: > 100 µM (inactive)

Question: And the GI50 (CCRF-CEM)?
Answer: > 100 µM (inactive)

Question: And the GI50 (COLO 205)?
Answer: > 100 µM (inactive)

Question: What about the GI50 (DU-145) of the same compound?
Answer: > 100 µM (inactive)

Question: And the GI50 (EKVX)?
Answer: > 100 µM (inactive)

Question: And the GI50 (HCC 2998)?
Answer: > 100 µM (inactive)

Question: What about the GI50 (HCT-116) of the same compound?
Answer: > 100 µM (inactive)

Question: What about the GI50 (HCT-15) of the same compound?
Answer: > 100 µM

Question: And the GI50 (HL-60)?
Answer: > 100 µM (inactive)

Question: What about the GI50 (HOP-62) of the same compound?
Answer: > 100 µM (inactive)

Question: What about the GI50 (HOP-92) of the same compound?
Answer: > 100 µM (inactive)

Question: And the GI50 (HT-29)?
Answer: > 100 µM (inactive)

Question: And the GI50 (Hs-578T)?
Answer: > 100 µM (inactive)

Question: And the GI50 (IGROV-1)?
Answer: > 100 µM (inactive)

Question: What about the GI50 (K562) of the same compound?
Answer: > 100 µM (inactive)

Question: What about the GI50 (KM12) of the same compound?
Answer: > 100 µM (inactive)

Question: And the GI50 (LOX IMVI)?
Answer: > 100 µM (inactive)

Question: What about the GI50 (M14) of the same compound?
Answer: > 100 µM (inactive)

Question: And the GI50 (MCF7)?
Answer: > 100 µM (inactive)

Question: And the GI50 (MDA-MB-231)?
Answer: > 100 µM (inactive)

Question: What about the GI50 (MDA-MB-435) of the same compound?
Answer: > 100 µM (inactive)

Question: What about the GI50 (MDA-N) of the same compound?
Answer: > 100 µM (inactive)

Question: And the GI50 (MOLT-4)?
Answer: > 100 µM (inactive)

Question: And the GI50 (Malme-3M)?
Answer: > 100 µM (inactive)

Question: And the GI50 (NCI-H226)?
Answer: > 100 µM (inactive)

Question: What about the GI50 (NCI-H23) of the same compound?
Answer: > 100 µM (inactive)

Question: And the GI50 (NCI-H460)?
Answer: > 100 µM (inactive)

Question: And the GI50 (NCI-H522)?
Answer: > 100 µM (inactive)

Question: And the GI50 (NCI/ADR-RES)?
Answer: > 100 µM (inactive)

Question: What about the GI50 (OVCAR-3) of the same compound?
Answer: > 100 µM (inactive)

Question: And the GI50 (OVCAR-4)?
Answer: > 100 µM (inactive)

Question: And the GI50 (OVCAR-5)?
Answer: > 100 µM (inactive)

Question: What about the GI50 (OVCAR-8) of the same compound?
Answer: > 100 µM (inactive)

Question: And the GI50 (PC-3)?
Answer: > 100 µM (inactive)

Question: What about the GI50 (RPMI-8226) of the same compound?
Answer: > 100 µM (inactive)

Question: What about the GI50 (RXF 393) of the same compound?
Answer: > 100 µM (inactive)

Question: What about the GI50 (SF-268) of the same compound?
Answer: > 100 µM (inactive)

Question: And the GI50 (SF-295)?
Answer: > 100 µM (inactive)

Question: What about the GI50 (SF-539) of the same compound?
Answer: > 100 µM (inactive)

Question: What about the GI50 (SK-MEL-28) of the same compound?
Answer: > 100 µM (inactive)

Question: And the GI50 (SK-MEL-2)?
Answer: > 100 µM (inactive)

Question: And the GI50 (SK-MEL-5)?
Answer: > 100 µM (inactive)

Question: And the GI50 (SK-OV-3)?
Answer: 20.5 µM (inactive)

Question: And the GI50 (SN12C)?
Answer: > 100 µM (inactive)

Question: What about the GI50 (SNB-19) of the same compound?
Answer: > 100 µM (inactive)

Question: What about the GI50 (SNB-75) of the same compound?
Answer: > 100 µM (inactive)

Question: And the GI50 (SR)?
Answer: > 100 µM (inactive)

Question: What about the GI50 (SW-620) of the same compound?
Answer: > 100 µM (inactive)

Question: What about the GI50 (TK-10) of the same compound?
Answer: > 100 µM (inactive)

Question: And the GI50 (U-251)?
Answer: > 100 µM (inactive)

Question: And the GI50 (UACC-257)?
Answer: > 100 µM (inactive)

Question: What about the GI50 (UACC-62) of the same compound?
Answer: > 100 µM (inactive)

Question: And the GI50 (UO-31)?
Answer: > 100 µM (inactive)

Question: For Cc1ccc(-c2c(C#N)c(-c3ccc(N(C)C)cc3)c(C#N)c(=O)n2NS(=O)(=O)c2ccccc2)cc1, which GI50 (786-0) is on record?
Answer: 22.9 µM (inactive)

Question: And the GI50 (A498)?
Answer: 51.4 µM (inactive)

Question: What about the GI50 (A549) of the same compound?
Answer: 36.5 µM (inactive)

Question: What about the GI50 (ACHN) of the same compound?
Answer: 42.7 µM (inactive)

Question: And the GI50 (BT-549)?
Answer: 37.2 µM (inactive)

Question: What about the GI50 (CAKI-1) of the same compound?
Answer: 31.7 µM (inactive)

Question: And the GI50 (CCRF-CEM)?
Answer: 29.5 µM (inactive)

Question: What about the GI50 (COLO 205) of the same compound?
Answer: 40.8 µM (inactive)

Question: And the GI50 (EKVX)?
Answer: 96.6 µM (inactive)

Question: What about the GI50 (HCC 2998) of the same compound?
Answer: 18.3 µM (inactive)

Question: What about the GI50 (HCT-116) of the same compound?
Answer: 30.7 µM (inactive)

Question: What about the GI50 (HCT-15) of the same compound?
Answer: 27.7 µM

Question: And the GI50 (HL-60)?
Answer: 44.8 µM (inactive)

Question: And the GI50 (HOP-62)?
Answer: 46.2 µM (inactive)

Question: And the GI50 (HOP-92)?
Answer: > 100 µM (inactive)

Question: What about the GI50 (HT-29) of the same compound?
Answer: 38.5 µM (inactive)

Question: And the GI50 (Hs-578T)?
Answer: 33.7 µM (inactive)

Question: What about the GI50 (IGROV-1) of the same compound?
Answer: 63.2 µM (inactive)

Question: What about the GI50 (K562) of the same compound?
Answer: 44.9 µM (inactive)

Question: What about the GI50 (KM12) of the same compound?
Answer: 31.3 µM (inactive)

Question: And the GI50 (LOX IMVI)?
Answer: 28 µM (inactive)

Question: What about the GI50 (M14) of the same compound?
Answer: 25 µM (inactive)

Question: What about the GI50 (MCF7) of the same compound?
Answer: 26.1 µM (inactive)

Question: And the GI50 (MDA-MB-231)?
Answer: > 100 µM (inactive)

Question: What about the GI50 (MDA-MB-435) of the same compound?
Answer: 43.7 µM (inactive)

Question: And the GI50 (MDA-N)?
Answer: 45.9 µM (inactive)

Question: And the GI50 (MOLT-4)?
Answer: 16.4 µM (inactive)

Question: What about the GI50 (Malme-3M) of the same compound?
Answer: 87.9 µM (inactive)

Question: What about the GI50 (NCI-H226) of the same compound?
Answer: > 100 µM (inactive)

Question: What about the GI50 (NCI-H460) of the same compound?
Answer: 18.1 µM (inactive)

Question: And the GI50 (NCI-H522)?
Answer: 42.3 µM (inactive)

Question: And the GI50 (NCI/ADR-RES)?
Answer: 39.4 µM (inactive)

Question: And the GI50 (OVCAR-4)?
Answer: 19.9 µM (inactive)

Question: What about the GI50 (OVCAR-5) of the same compound?
Answer: > 100 µM (inactive)

Question: And the GI50 (OVCAR-8)?
Answer: 44.5 µM (inactive)

Question: And the GI50 (PC-3)?
Answer: 33.4 µM (inactive)

Question: What about the GI50 (RPMI-8226) of the same compound?
Answer: 8.67 µM (inactive)

Question: And the GI50 (RXF 393)?
Answer: 22.7 µM (inactive)

Question: What about the GI50 (SF-268) of the same compound?
Answer: 79.3 µM (inactive)

Question: And the GI50 (SF-295)?
Answer: 23.1 µM (inactive)

Question: What about the GI50 (SF-539) of the same compound?
Answer: 21.9 µM (inactive)

Question: And the GI50 (SK-MEL-28)?
Answer: 45.9 µM (inactive)

Question: What about the GI50 (SK-MEL-2) of the same compound?
Answer: 37.5 µM (inactive)

Question: And the GI50 (SK-MEL-5)?
Answer: 17.3 µM (inactive)

Question: What about the GI50 (SK-OV-3) of the same compound?
Answer: 62.1 µM (inactive)

Question: What about the GI50 (SN12C) of the same compound?
Answer: 55.7 µM (inactive)

Question: And the GI50 (SNB-19)?
Answer: 63.7 µM (inactive)

Question: And the GI50 (SNB-75)?
Answer: 37 µM (inactive)

Question: What about the GI50 (SW-620) of the same compound?
Answer: 39.2 µM (inactive)

Question: And the GI50 (TK-10)?
Answer: 92.3 µM (inactive)

Question: What about the GI50 (U-251) of the same compound?
Answer: 47.9 µM (inactive)

Question: And the GI50 (UACC-257)?
Answer: > 100 µM (inactive)

Question: What about the GI50 (UACC-62) of the same compound?
Answer: 30.8 µM (inactive)
